Measurements reported in paper PMC11862611 (RSC Medicinal Chemistry, 2025).
pEC50: −log10 of the molar value.

Experiments:
[1] = test system: L. major promastigotes (FV1) WT; assay: anti-promastigote assay, L. major (resazurin); type: cell-based; conditions: Leishmania major; promastigote parasites (Table 1); read-out: L.mj EC50
Protocol: 4.2.3.1. Anti-promastigote assays
L. major promastigotes (FV1) WT, PX and Δ LCB2 in Schneider’s insect medium (100 μL at 1 × 106 mL−1) were incubated in 96-well plates with compounds in triplicate (amphotericin B and cycloheximide were used as positive controls, and untreated parasites with 1% DMSO as a negative control) at 26 °C for 48 h.
Resazurin Solution (10 μL) was then added and the plate incubated at 26 °C for 4 h prior to measurement using a fluorescence plate reader (555 - 585 nm). EC50 values were calculated using sigmoidal regression analysis (GraphPad Prism). […]
well-1 in a 24-well plate with round cover slips and incubated for 24 h at 37 °C and 5% CO2. […]

[2] = molecular target: T1, M4 (h) (antagonist radioligand) (Homo sapiens, UniProt P08173); assay: radioligand displacement assay, M4; type: binding
T1 construct: purchased Eurofins (contract assay); host or cells: cell membrane homogenates
T1 sequence (P08173 1-479): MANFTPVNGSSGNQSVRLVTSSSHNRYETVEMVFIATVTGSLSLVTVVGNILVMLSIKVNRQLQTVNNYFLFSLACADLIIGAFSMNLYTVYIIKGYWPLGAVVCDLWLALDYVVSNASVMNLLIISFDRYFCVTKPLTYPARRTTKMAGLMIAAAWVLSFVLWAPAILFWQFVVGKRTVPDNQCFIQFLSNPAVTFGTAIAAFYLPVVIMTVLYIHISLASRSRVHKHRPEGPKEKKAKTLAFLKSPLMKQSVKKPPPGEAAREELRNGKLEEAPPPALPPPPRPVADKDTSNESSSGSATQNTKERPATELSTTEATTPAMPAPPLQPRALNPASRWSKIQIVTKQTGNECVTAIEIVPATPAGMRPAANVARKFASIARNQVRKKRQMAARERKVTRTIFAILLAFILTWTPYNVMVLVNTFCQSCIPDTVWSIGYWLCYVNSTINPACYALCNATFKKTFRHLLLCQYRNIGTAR
Protocol: (§1) 4.2.3.6. Radioligand Binding Assay (Supplemental Figure S3)
(§2) These assays were run by Eurofins under contract to LifeArc FR095-0011887. A representative protocol describing the human histamine H2 receptor (antagonist radioligand) assay is shown below.12 Cell membrane homogenates (24 µg protein) are incubated for 120 min at 22°C with 0.075 nM [125I]APT in the absence or presence of the test compound in a buffer containing 50 mM Na2HPO4/KH2PO4 (pH […]
(§3) 7.4) and 0.05% BSA. […] Following

[3] = test system: L. major PX promastigotes; assay: on-target growth inhibition, add-back cell line (PX); type: cell-based, Leishmania major
5-HTB2 receptors = molecular target: T2, 5-HTB2 receptors (Homo sapiens, UniProt P41595); assay: radioligand displacement assay, 5-HT2B; type: binding
T2 construct: purchased Eurofins (contract assay); host or cells: cell membrane homogenates
T2 sequence (P41595 whole entry): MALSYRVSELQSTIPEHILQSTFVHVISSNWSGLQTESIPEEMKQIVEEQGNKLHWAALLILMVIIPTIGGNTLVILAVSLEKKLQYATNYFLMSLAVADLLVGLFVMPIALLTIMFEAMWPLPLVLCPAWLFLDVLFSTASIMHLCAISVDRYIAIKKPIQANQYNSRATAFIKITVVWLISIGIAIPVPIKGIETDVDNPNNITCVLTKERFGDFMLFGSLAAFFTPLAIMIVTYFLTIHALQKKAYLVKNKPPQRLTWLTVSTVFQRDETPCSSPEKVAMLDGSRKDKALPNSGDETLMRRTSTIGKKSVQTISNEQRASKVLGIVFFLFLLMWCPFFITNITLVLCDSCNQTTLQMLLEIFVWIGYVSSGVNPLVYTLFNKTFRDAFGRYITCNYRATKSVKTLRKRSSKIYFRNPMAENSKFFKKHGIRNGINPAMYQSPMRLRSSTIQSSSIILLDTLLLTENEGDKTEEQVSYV
Protocol: as §1, §2, §3

[4] = test system: L. major ΔLCB2 promastigotes; type: cell-based, Leishmania major; conditions: EC50 WT versus ΔLCB2 L. major promastigotes
[5] = molecular target: T3, H1 (h) (antagonist radioligand) (Homo sapiens, UniProt P35367); assay: radioligand displacement assay, H1; type: binding
T3 construct: purchased Eurofins (contract assay); host or cells: cell membrane homogenates
T3 sequence (P35367 whole entry): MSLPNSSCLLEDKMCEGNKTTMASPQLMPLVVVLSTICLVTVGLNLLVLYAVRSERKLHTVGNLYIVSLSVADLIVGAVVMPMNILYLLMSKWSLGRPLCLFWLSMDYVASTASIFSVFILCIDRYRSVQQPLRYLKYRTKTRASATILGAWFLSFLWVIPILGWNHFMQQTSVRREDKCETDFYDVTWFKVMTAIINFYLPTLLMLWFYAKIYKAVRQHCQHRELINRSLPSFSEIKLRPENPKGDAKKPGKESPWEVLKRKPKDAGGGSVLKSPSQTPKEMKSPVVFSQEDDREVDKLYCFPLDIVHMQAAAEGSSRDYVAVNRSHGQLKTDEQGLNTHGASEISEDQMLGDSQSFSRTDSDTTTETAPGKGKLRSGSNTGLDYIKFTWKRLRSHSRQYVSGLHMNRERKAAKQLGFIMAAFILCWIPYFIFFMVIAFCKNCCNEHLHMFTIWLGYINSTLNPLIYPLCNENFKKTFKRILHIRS
Protocol: as §1, §2, §3

LmjIPCS = molecular target: T4, LmjIPCS (Leishmania major, UniProt E9AFX2); assay: HPTLC based LmjIPCS assay; type: biochemical; conditions: microsomes treated with 5 mM compound; NBD-C6-ceramide and PI
T4 construct: made in house
T4 sequence (E9AFX2 whole entry): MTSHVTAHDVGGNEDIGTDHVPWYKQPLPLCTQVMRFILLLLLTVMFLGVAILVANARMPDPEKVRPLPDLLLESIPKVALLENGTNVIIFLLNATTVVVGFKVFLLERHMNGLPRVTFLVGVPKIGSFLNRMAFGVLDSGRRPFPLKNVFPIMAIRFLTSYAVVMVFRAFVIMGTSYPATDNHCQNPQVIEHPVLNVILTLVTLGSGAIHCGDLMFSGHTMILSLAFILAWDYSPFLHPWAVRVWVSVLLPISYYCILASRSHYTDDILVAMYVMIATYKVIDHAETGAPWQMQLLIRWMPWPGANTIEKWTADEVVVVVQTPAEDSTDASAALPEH
From the text: CF was originally selected from a screen for inhibitors of the sphingolipid synthase, (L. majIPCS) and to verify that this new analogue retained this profile we applied the same assays as used before. […] To support inhibition of the IPCS, the HPTLC biochemical assay described by Mina et al.[16] was employed. In this, using a microsomal preparation of the L. majIPCS, a fluorescent substrate NBD-C6-ceramide was combined with PI and the two drugs. Following the reaction, the product, NBD-C6-IPC, and residual starting material were separated via HPTLC and analysed by fluorescence spectroscopy.
°C and 5% CO2. Aliquots of resazurin solution (10 μL) were then added and the cells were incubated at 37 °C and 5% CO2 for 4 h. Cell-viability measurement was carried out using a fluorescence plate reader. […]
days. Infected ear thicknesses were measured once or twice a week with a caliper gauge, and the lesion sizes were expressed as the difference between the thickness of infected and non-infected ear. On day 41 animals were sacrificed and the fluorescence measured (485 - 528 nm) and parasite load quantified using a limiting dilution assay (LDA).
Data on lesion progression were analysed for statistical significance by using the Dunnett test as part of the one-way ANOVA (GraphPad Prism 8 software). […]
Product quantification was carried out using a fluorescence plate reader […]

For C[C@H]1CCCN1CCCO[C@H](c1ccccc1)c1ccc(Cl)cc1 [38l], the pEC50 [1] was 7.52, the “effective binding, radioligand displacement, M4” value [2] was over 40% and the “sensitivity in the add-back cell line (PX)” value [3] was “Sensitivity was restored”. The “affinity, radioligand displacement, 5-HTB2” value (5-HTB2 receptors) was “lower affinity”, the “times more active against WT than mutant ΔLCB2 promastigotes” value [4] was “approximately 3 times” and the “effective binding, radioligand displacement, H1” value [5] was over 40%. For the same compound, the “NBD-C6-IPC product formation (HPTLC)” value (LmjIPCS) was “No product was observed”.
